Eleven compounds from ChEMBL document CHEMBL4699516, “S-Bridged Thioether and Structure-Diversified Angucyclinone Derivatives from the South China Sea-Derived Micromonospora echinospora SCSIO 04089” (J Nat Prod, 2020) can be followed below.

≈ marks a conversion by molar mass, not a printed value.

One assay has as its system SF-268. The experiment in a line: Cytotoxicity against human SF-268 cells assessed as reduction in cell viability after 72 hrs by SRB assay. Type of assay: functional, cell-based. Conditions: SF-268, 72 h. (In general: Sulforhodamine B stains cellular protein and so reports cell mass.)
A further assay deals with MCF7. As to the kind of experiment: Cytotoxicity against human MCF7 cells assessed as reduction in cell viability after 72 hrs by SRB assay. It counts as functional, cell-based. Conditions: MCF7, 72 h.
Another assay has as its system HepG2. As to the kind of experiment: Cytotoxicity against human HepG2 cells assessed as reduction in cell viability after 72 hrs by SRB assay. Type of assay: functional, cell-based. As to conditions: HepG2, 72 h.
The subject of assay [1] is Staphylococcus aureus. As to the kind of experiment: Antibacterial activity against Staphylococcus aureus ATCC 29213 assessed as reduction in bacterial growth after 16 hrs by broth microdilution method. It counts as functional. (In general: Broth dilution looks for growth in wells or tubes with falling amounts of substance.)
The test system of a further assay is Bacillus thuringiensis. The experiment in a line: Antibacterial activity against Bacillus thuringiensis SCSIO BT01 assessed as reduction in bacterial growth after 16 hrs by broth microdilution method. It counts as functional.
In another assay the test system is Micrococcus luteus. As to the kind of experiment: Antibacterial activity against Micrococcus luteus SCSIO ML01 assessed as reduction in bacterial growth after 16 hrs by broth microdilution method. Type of assay: functional.
The subject of a further assay is Bacillus subtilis. The experiment in a line: Antibacterial activity against […] 1064 assessed as reduction in bacterial growth after 16 hrs by broth microdilution method. Type of assay: functional.
Assay [2] has as its system Staphylococcus aureus. As to the kind of experiment: Antibacterial activity against methicillin-resistant Staphylococcus aureus shhs-A1 assessed as reduction in bacterial growth after 16 hrs by broth microdilution method. It counts as functional.

As to `CCc1cc(O)c(C2=C(O)C(=O)c3c(O)cccc3C2=O)c(C(=O)OC)c1`, the IC50 in the assay on SF-268, with MCF7 and in the assay on HepG2 was > 100 µM throughout. Also, the MIC with Staphylococcus aureus [1], in the assay on Bacillus thuringiensis, in the assay on Micrococcus luteus, with Bacillus subtilis and in the assay with Staphylococcus aureus [2] was > 64 µg/mL in each case.

On to `CC[C@]12CC(=O)[C@@]3(O)[C@](O)(CC(O)=C4C(=O)c5c(O)cccc5C(=O)[C@@]43S1)C2`, for which the concentration for half-maximal inhibition (IC50) with SF-268, in the assay with MCF7 and with HepG2 was > 100 µM throughout. For the same compound, the MIC in the assay on Staphylococcus aureus [1], with Bacillus thuringiensis, in the assay with Micrococcus luteus, in the assay on Bacillus subtilis and in the assay with Staphylococcus aureus [2] was > 64 µg/mL each time.

As for `CCc1cc(O)c2c(c1C(C)=O)C(=O)c1cccc(O)c1C2=O`, the IC50 – broadly, the point on the concentration scale where inhibition reaches its midpoint – in the assay on SF-268 is 7.6 µM; in the assay with MCF7 it was 10.4 µM; with HepG2, 8.1 µM. Besides, the MIC in the assay with Staphylococcus aureus [1], in the assay with Bacillus thuringiensis, with Micrococcus luteus, in the assay on Bacillus subtilis and with Staphylococcus aureus [2] was > 64 µg/mL each time.

Consider `CCc1cc(O)c2c3c(ncc2c1)C(=O)c1c(O)cccc1C3=O`, for which the IC50 in the assay on SF-268 came out at 5.4 µM; with MCF7, 6.8 µM; in the assay with HepG2, 1.4 µM. In addition, the MIC – broadly, the smallest concentration in the dilution series that meets the test's criterion for growth inhibition – amounted to 2 µg/mL (≈ 6.26 µM) in the assay on Staphylococcus aureus [1]; 4 µg/mL (≈ 12.5 µM) in the assay on Bacillus thuringiensis; 4 µg/mL (≈ 12.5 µM) with Micrococcus luteus; 4 µg/mL (≈ 12.5 µM) in the assay on Bacillus subtilis; 2 µg/mL (≈ 6.26 µM) in the assay on Staphylococcus aureus [2].

As for `CCc1cc(O)c2c(c1)C(SC[C@H](NC(C)=O)C(=O)O)=C1C(=O)c3c(O)cccc3C(O)=C12`, the IC50 in the assay with SF-268, in the assay on MCF7 and in the assay with HepG2 was > 100 µM throughout. Further, the MIC in the assay with Staphylococcus aureus [1], in the assay with Bacillus thuringiensis, with Micrococcus luteus, in the assay with Bacillus subtilis and with Staphylococcus aureus [2] was > 64 µg/mL in each case.

For `CCc1cc(O)c2c3c([nH]c(=O)c2c1)C(=O)c1c(O)cccc1C3=O`, the IC50 in the assay with SF-268 stood at 18 µM; with MCF7, 52 µM; with HepG2 it was 4 µM. The MIC is 64 µg/mL (≈ 191 µM) in the assay with Staphylococcus aureus [1]; > 64 µg/mL in the assay with Bacillus thuringiensis; > 64 µg/mL in the assay on Micrococcus luteus; > 64 µg/mL in the assay with Bacillus subtilis; 64 µg/mL (≈ 191 µM) with Staphylococcus aureus [2].

As for `CCc1cc(O)c2c3c(c(O)cc2c1)C(=O)c1c(O)cccc1C3=O`, the IC50 in the assay on SF-268 is 16.9 µM; in the assay on MCF7, 14.9 µM; with HepG2 it was 25.3 µM. Besides, the MIC in the assay on Staphylococcus aureus [1] is 4 µg/mL (≈ 12 µM); with Bacillus thuringiensis it was > 64 µg/mL; with Micrococcus luteus it was 8 µg/mL (≈ 23.9 µM); in the assay with Bacillus subtilis, > 64 µg/mL; with Staphylococcus aureus [2], > 64 µg/mL.

For `CCc1cc(C(=O)O)c2c3c(oc2c1)C(=O)c1c(O)cccc1C3=O`, the IC50 in the assay with SF-268, with MCF7 and in the assay with HepG2 was > 100 µM throughout. Also, the MIC in the assay with Staphylococcus aureus [1], in the assay on Bacillus thuringiensis, in the assay with Micrococcus luteus, in the assay on Bacillus subtilis and in the assay with Staphylococcus aureus [2] was > 64 µg/mL throughout.

Turning to `CC[C@]1(O)CC(=O)c2c(cc(O)c3c2C(=O)c2cccc(O)c2C3=O)C1`, the figures for the IC50 with SF-268, in the assay with MCF7 and with HepG2 were 9 µM, 12.5 µM and 10.3 µM, respectively. In addition, the MIC in the assay on Staphylococcus aureus [1], in the assay with Bacillus thuringiensis, in the assay on Micrococcus luteus, with Bacillus subtilis and in the assay with Staphylococcus aureus [2] was > 64 µg/mL throughout.

On to `CCc1cc(O)c2c(c1)C(N)=C1C(=O)c3c(O)cccc3C(=O)C12CC(C)=O` (racemic), for which the IC50 in the assay with SF-268, in the assay with MCF7 and in the assay with HepG2 was > 100 µM each time. Further, the MIC with Staphylococcus aureus [1], with Bacillus thuringiensis, in the assay on Micrococcus luteus, in the assay on Bacillus subtilis and with Staphylococcus aureus [2] was > 64 µg/mL in each case.

On to `Cc1cn([C@H]2C[C@H](O)[C@@H](COP(=O)(O)O)O2)c(=O)[nH]c1=O` [THYMIDINE MONOPHOSPHATE], for which the MIC in the assay on Staphylococcus aureus [1] turned out to be 2 µg/mL; in the assay with Bacillus thuringiensis, 0.5 µg/mL; in the assay on Micrococcus luteus, 0.5 µg/mL; in the assay with Bacillus subtilis it was 0.5 µg/mL; in the assay with Staphylococcus aureus [2], 2 µg/mL.
